Read-outs that look alike come from different tables or passages of the source.
Experiments:
hMPV-GFP virus = test: microbe, parasite or virus in culture; format: cell-based, Human Metapneumovirus; details: VERO cells, hMPV-GFP MOI=1.25, 48 hrs, GFP-expressing cells counted
Protocol: GFP expressing rgHMPV #3 p3 was generated in Dr. Buchholz's lab (Biacchesi S. et al., J Virol. 2007 June; 81(11): 6057-6067) and propagated in VERO cells (ATCC Cat #CCL-81) with a Multiplicity of Infection (MOI) of 0.1. Virus was harvested 4 days after infection by collecting cultured material and was freeze-thaw cycled in liquid nitrogen twice. Working virus stocks were generated from thawing frozen samples in 37° C. water bath, which were centrifuged at 218 g for 15 min at 4° C. 1/10 of 10×SPG (Biological Industries 06-3061-01-5A) were added and then mixed. The supernatant was aliquoted, frozen in liquid nitrogen, and then transferred to a −80° C. freezer for storage. Virus titer was determined by performing titration test in 96-well plates and calculate approximate virus titer using GFP event/well data.
Compound plates were prepared by dispensing compounds dissolved in DMSO into wells of a 384 well Corning 3985 polystyrene flat clear bottom optical imaging microplate (202.5 nL/well) using an ECHO acoustic dispenser. Each compound was tested in 10-point serial 3-fold dilution (typical final concentrations: 40,300 nM-2 nM). […] Continuous culture of VERO cells was maintained in complete culture media (OptiMEM supplemented with 2 mM GlutaMAX™ and 100 U/ml Penicillin-Streptomycin). To set up the assay, VERO cells were trypsinized with 0.25% Trypsin-EDTA until cells were dislodged, then cells were re-suspended with 1 mL FBS. Cells were spundown at 300 g for 5 minutes and cells were washed twice with culture media and counted using default parameters on ViCell. Cells were then diluted to 100,000 cells/mL (5,000 cells/50 μL) in complete culture media+TrypLE Select (80 μL/mL). hMPV-GFP virus was added to cells at 125,000 pfu/mL (MOI=1.25) and were mixed by gentle inversion. 10 μL/well of 100% DMSO was dispensed to CellTiter-Glo (CTG) assay Max_E controls wells. Cells were dispensed at 50 μL/well using Bravo and 50 μL filtered tips into compound plates. Plates were covered with MicroClime lids and loaded with 7.5 mL of assay media to minimize evaporation. Plates were lightly shaken for 10 minutes at room temperature and then incubated at 37° C. and 5% CO2 for 48 hrs. Following incubation, distinct GFP-expressing cells were counted using an Acumen imaging system with appropriate settings. A same-well CTG assay was performed by adding 10 μL/well reconstituted CellTiter-Glo reagent (Promega G7573) and plates were read on PerkinElmer Envision according to manufacturer's instructions. Raw data were loaded and analyzed in ActivityBase. Antiviral IC50 and cytotoxicity CC50 values were determined using a 4 parameter logistic fit based on the Levenberg-Marquardt algorithm. Model: 205-4 Parameter Logistic.

RSV-A2-GFP virus = test: microbe, parasite or virus in culture; format: cell-based, Human Respiratory Syncytial Virus; details: Calu-1 cells, RSV-A2-GFP MOI=1.2, 96 hrs, GFP-expressing cells counted
Protocol: To set up the assay, ARF vials were thawed in a 37° C. water bath and a control compound was resuspended in assay media DMEM (Dulbecco's Modified Eagle Medium) containing 2% FBS, 100 U/ml Penicillin-Streptomycin.
GFP sequence was derived from pJTI™ R4 Dest CMV N-EmGFP pA Vector (Invitrogen) and was cloned into the intergenic sequence between wild-type RSV-A2 P and M genes using standard recombineering techniques. Recombinant RSV-A2-GFP was propagated in Hep2 cells (human cells contain HeLa marker chromosomes and were derived via HeLa contamination, ATCC CCL-23) with a Multiplicity of Infection (MOI) of 0.1. Virus was harvested 3 days after infection by collecting all culture material and then freeze-thawing the mixture for 5 minutes. Working virus stocks were generated by thawing frozen viral cultures in 37° C. water bath, which were centrifuged at 218 g for 15 min at 4° C. 1/10 of 10×SPG (Biological Industries 06-3061-01-5A) were added and then mixed. The supernatant was aliquoted, frozen in liquid nitrogen, and then transferred to a −80° C. freezer for storage. Virus titer was determined by automated plaque assay in HEp-2 cells following methods described previously (Wen Z. et al.; 2019).
Calu-1 cells were purchased from ATCC (Cat #HTB-54) and were expanded in growth media (DMEM containing 10% FBS, 100 U/ml Penicillin-Streptomycin). To make ARF, cell culture media was removed and discarded and the cell layer was briefly rinsed with PBS to remove serum. 2.5 mL of TrypLE Express solution were added and cells incubated until dislodged, to which growth media was added and the cells were resuspended by gentle pipetting. Cells were counted for concentration and viability as determined by ViCell. Cells were centrifuged at RT, 300 g for 5 minutes to pellet cells. The supernatant was gently aspirated and the pellet was flicked to loosen cells. Cells were resuspended in an appropriate volume of freezing medium (DMEM containing 10% DMSO, 10% FBS, 100 U/ml Penicillin-Streptomycin) to achieve a concentration of 5×10^6 cells/mL. 1 mL aliquots of the cell suspension were transferred to freezing vials. The vials were put into an upright container in a −80° C. freezer overnight before transferring vials to liquid nitrogen for storage
Assay ready freeze-down (ARF, generation described separately) Calu-1 cells (ATCC HTB-54) were used. Compound plates were prepared by dispensing compounds dissolved in DMSO into the wells of a 384 well Corning® 3985 plate with an ECHO acoustic dispenser and compounds were tested in 10-point serial 3-fold dilution. […] To set up the assay, ARF vial(s) were thawed in a 37° C. water bath and were then resuspended into assay media (DMEM containing 2% FBS, 100 U/ml Penicillin-Streptomycin). Cells were counted using default parameters on ViCell and diluted to 20,000 cells/mL in assay media. RSV-A2-GFP virus was added to cells at 24,000 pfu/ml (MOI=1.2) and mixed by gentle inversion. 10 μL/well of 100% DMSO was dispensed as CellTiter-Glo (CTG) assay Max_E controls wells. The cells were dispensed at 50 μL/well using Bravo with 50 μL filtered tips into compound plates. Plates were covered with MicroClime lids, loaded with 7.5 mL of assay media to minimize evaporation, and were incubated at 37° C. and 5% CO2 for 96 hrs. Following incubation, distinct, GFP-expressing cells were counted using an Acumen imaging system with appropriate settings. A same-well CTG assay was performed by adding 10 μL/well reconstituted CellTiter-Glo reagent (Promega G7573) and plates were read on PerkinElmer Envision according to manufacturer's instructions. Raw data were loaded and analyzed in ActivityBase. Antiviral IC50 and cytotoxicity CC50 values were determined using a 4 parameter logistic fit based on the Levenberg-Marquardt algorithm. Model: 205-4 Parameter Logistic.

[1] = Table II Summary of Activities for hMPV, read-out: RSV EC50
[2] = Table I Summary of Activities for RSV, read-out: RSV EC50
[3] = read-out: RSV EC50, Table II Summary of Activities for hMPV
[4] = Vero, 48 h, read-out: RSV EC50, Table II Summary of Activities for hMPV
[5] = human respiratory syncytial virus, Calu-1, 96 h, read-out: RSV EC50, Table I Summary of Activities for RSV

`Cc1nc(-c2cscn2)sc1C(=O)N1C[C@@H]2[C@H](C1)[C@H]2Oc1cc(C(C)(C)N)cc(-c2ccc(F)cc2F)n1` [Example 33, ((1R,5S,6s)-6-((4-(2-aminopropan-2-yl)-6-(2,4-difluorophenyl)pyridin-2-yl)oxy)-3-azabicyclo[3.1.0]hexan-3-yl)(4-methyl-[2,4′-bithiazol]-5-yl)methanone] was tested, and the EC50 (hMPV-GFP virus; [1]) was greater than 100 nM and the EC50 (RSV-A2-GFP virus; [2]) was less than 10 nM.
`CC(N)c1cc(O[C@H]2[C@@H]3CN(C(=O)c4cc(-c5ccon5)nn4C)C[C@@H]32)nc(-c2ccc(F)cc2)c1` (single isomer, unassigned; enantiomer 2) [Example 62B] was tested, and the EC50 (hMPV-GFP virus; [3]) was greater than 100 nM and the EC50 (RSV-A2-GFP virus; read-out: RSV EC50, Table I Summary of Activities for RSV) was less than 10 nM.
`Cn1nc(-c2cscn2)cc1C(=O)N1C[C@@H]2[C@H](C1)[C@H]2Oc1cc(C(C)(C)N)cc(-c2ccc(F)cc2)n1` [Example 18, ((1R,5S,6s)-6-((4-(2-aminopropan-2-yl)-6-(4-fluorophenyl)pyridin-2-yl)oxy)-3-azabicyclo[3.1.0]hexan-3-yl)(1-methyl-3-(thiazol-4-yl)-1H-pyrazol-5-yl)methanone] was tested, and the EC50 (hMPV-GFP virus; [4]) was 10 to 100 nM and the EC50 (RSV-A2-GFP virus; [5]) was less than 10 nM.
In the case of `Cc1nc(-c2ncco2)sc1C(=O)N1C[C@@H]2[C@H](C1)[C@H]2Oc1cc(C(C)(C)N)cc(-n2cc(C3CC3)cn2)n1` [Example 37, ((1R,5S,6s)-6-((4-(2-aminopropan-2-yl)-6-(4-cyclopropyl-1H-pyrazol-1-yl)pyridin-2-yl)oxy)-3-azabicyclo[3.1.0]hexan-3-yl)(4-methyl-2-(oxazol-2-yl)thiazol-5-yl)methanone], the EC50 (hMPV-GFP virus; [1]) is reported as greater than 100 nM and the EC50 (RSV-A2-GFP virus; [2]) is reported as less than 10 nM.
In the case of `Cc1nc(-c2ccon2)sc1C(=O)N1C[C@@H]2[C@H](C1)[C@H]2Oc1cc(C(C)(C)N)cc(-c2ccc(F)cc2F)n1` [Example 32, ((1R,5S,6s)-6-((4-(2-aminopropan-2-yl)-6-(2,4-difluorophenyl)pyridin-2-yl)oxy)-3-azabicyclo[3.1.0]hexan-3-yl)(2-(isoxazol-3-yl)-4-methylthiazol-5-yl)methanone], the EC50 (hMPV-GFP virus; [1]) is reported as greater than 100 nM and the EC50 (RSV-A2-GFP virus; [2]) is reported as less than 10 nM.
For `CCc1nc(-c2nc[nH]n2)sc1C(=O)N1C[C@@H]2[C@H](C1)[C@H]2Oc1cc(C(C)(C)N)cc(-c2ccc(F)cc2)n1` [Example 11, ((1R,5S,6s)-6-((4-(2-aminopropan-2-yl)-6-(4-fluorophenyl)pyridin-2-yl)oxy)-3-azabicyclo[3.1.0]hexan-3-yl)(4-ethyl-2-(1H-1,2,4-triazol-3-yl)thiazol-5-yl)methanone], the EC50 (hMPV-GFP virus; [1]) was greater than 100 nM and the EC50 (RSV-A2-GFP virus; [2]) was less than 10 nM.
With `Cn1nc(-c2cscn2)cc1C(=O)N1C[C@@H]2[C@H](C1)[C@H]2Oc1cc(C(C)(C)C(N)=O)cc(-c2ccc(F)cc2)n1` [Example 48, 2-(2-(4-fluorophenyl)-6-(((1R,5S,6s)-3-(1-methyl-3-(thiazol-4-yl)-1H-pyrazole-5-carbonyl)-3-azabicyclo[3.1.0]hexan-6-yl)oxy)pyridin-4-yl)-2-methylpropanamide] the EC50 (hMPV-GFP virus; [4]) was greater than 100 nM and the EC50 (RSV-A2-GFP virus; [5]) was less than 10 nM.
With `Cn1nc(-c2ncco2)c(F)c1C(=O)N1C[C@@H]2[C@H](C1)[C@H]2Oc1cc(C(C)(C)N)cc(-c2ccc(F)cc2)n1` [Example 26, ((1R,5S,6s)-6-((4-(2-aminopropan-2-yl)-6-(4-fluorophenyl)pyridin-2-yl)oxy)-3-azabicyclo[3.1.0]hexan-3-yl)(4-fluoro-1-methyl-3-(oxazol-2-yl)-1H-pyrazol-5-yl)methanone] the EC50 (hMPV-GFP virus; [1]) was greater than 100 nM and the EC50 (RSV-A2-GFP virus; [2]) was less than 10 nM.
In the case of `CC(C)(N)c1cc(O[C@H]2[C@@H]3CN(C(=O)c4sc(-c5cscn5)nc4C(F)F)C[C@@H]32)nc(-c2ccc(F)cc2)c1` [Example 14], the EC50 (hMPV-GFP virus; [4]) is reported as greater than 100 nM and the EC50 (RSV-A2-GFP virus; [5]) is reported as less than 10 nM.
For `Cn1nc(-c2cscn2)cc1C(=O)N1C[C@@H]2[C@H]1C[C@H]2Oc1cc(C(C)(C)N)cc(-c2ccc(F)cc2)n1` (single isomer, unassigned; enantiomer 2) [Example 1], the EC50 (hMPV-GFP virus; [4]) was greater than 100 nM and the EC50 (RSV-A2-GFP virus; [5]) was less than 10 nM.
Work on `Cn1nc(-c2cscn2)cc1C(=O)N1C[C@H]2[C@H](Oc3cc(C(C)(C)N)cc(N4CCC(C)(C)CC4)n3)[C@@]2(C)C1` (single isomer, unassigned; enantiomer 1) [Example 46A] yielded an EC50 (hMPV-GFP virus; [4]) greater than 100 nM and an EC50 (RSV-A2-GFP virus; [5]) of less than 10 nM.
Molecule `Cn1nc(-c2cscn2)cc1C(=O)N1C[C@@H]2[C@H](C1)[C@H]2Oc1cc(C2(C)CCN2)cc(-c2ccc(F)cc2)n1` (single isomer, unassigned; enantiomer 1) [Example 55A] has an EC50 (hMPV-GFP virus; [3]) of 10 to 100 nM and an EC50 (RSV-A2-GFP virus; [5]) of less than 10 nM.
For `Cc1nc(-c2ncn[nH]2)sc1C(=O)N1C[C@@H]2[C@H](C1)[C@H]2Oc1cc(C(C)(C)N)cc(-c2ccc(F)cc2)n1` [Example 10, ((1R,5S,6s)-6-((4-(2-aminopropan-2-yl)-6-(4-fluorophenyl)pyridin-2-yl)oxy)-3-azabicyclo[3.1.0]hexan-3-yl)(4-methyl-2-(1H-1,2,4-triazol-5-yl)thiazol-5-yl)methanone], the EC50 (hMPV-GFP virus; [1]) was greater than 100 nM and the EC50 (RSV-A2-GFP virus; [2]) was less than 10 nM.

Source: patent US12565494B2, “Inhibitors of human respiratory syncytial virus and metapneumovirus” (priority 2022, dated 2026)
